The results in this text go back to patent US10106501B2, “Nuclear receptor modulators” (AbbVie Inc., priority 2015, dated 2018).

Structures are written as SMILES.

As usually defined, the IC50 is the concentration needed to halve the response being measured.

For the test, the target named is T1, chimeric human RORγ-Gal4 receptor (Homo sapiens, UniProt P51449).
T1 sequence (P51449 269-508 limits assumed): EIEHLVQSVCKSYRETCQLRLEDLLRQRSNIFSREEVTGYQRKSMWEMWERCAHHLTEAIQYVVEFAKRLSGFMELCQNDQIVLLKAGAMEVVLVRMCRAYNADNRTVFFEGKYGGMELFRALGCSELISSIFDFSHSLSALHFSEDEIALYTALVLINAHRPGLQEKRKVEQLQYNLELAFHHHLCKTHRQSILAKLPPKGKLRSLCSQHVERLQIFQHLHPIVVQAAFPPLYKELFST
As to the kind of experiment: transient transactivation assay (RORγ-Gal4 luciferase reporter). The note with it: Cos-7 cells transfected with RORγ-Gal4 and 5Gal4 pGL3 TK Luc reporter; overnight incubation; T0901317 at 10^-5 M as reference; read-out: IC50. Type of test: cell-based.
As for `CC1CN(C(=O)c2ccc(Cl)c(Cc3cc4ccc(OC(F)(F)F)cc4n3C)c2Cl)CCC1C(=O)O` (stereo not shown) [FI-2], the IC50 is under 100 nM. Regarding `Cc1ccc(C(=O)N2CCOCC2)c(C)c1Cc1cc2c(C)cc(C(F)(F)F)cc2n1C` [G, (3-((1,4-dimethyl-6-(trifluoromethyl)-1H-indol-2-yl)methyl)-2,4-dimethylphenyl)(morpholino)methanone], the 50% inhibitory concentration (IC50) was under 100 nM. On to `Cc1cc(C(F)(F)F)cc2ccn(Cc3c(Cl)ccc(C(=O)N4CCC(CC(=O)O)CC4)c3Cl)c12` [J, 2-(1-(2,4-dichloro-3-((7-methyl-5-(trifluoromethyl)-1H-indol-1-yl)methyl)benzoyl)piperidin-4-yl)acetic acid], for which the IC50 is under 100 nM.

For `Cc1ccc(C(=O)N2CCOCC2)c(C)c1C(O)c1cc2c(C)cc(C(F)(F)F)cc2n1C` (stereo not shown) [K, (3-((1,4-dimethyl-6-(trifluoromethyl)-1H-indol-2-yl)(hydroxy)methyl)-2,4-dimethylphenyl)(morpholino)methanone], the IC50 is 100 to 500 nM. For the compound `Cn1c(Cc2c(Cl)ccc(C(=O)N3CCC(O)CC3)c2Cl)cc2ccc(C(F)(F)F)cc21` [L, (2,4-dichloro-3-((1-methyl-6-(trifluoromethyl)-1H-indol-2-yl)methyl)phenyl)(4-hydroxypiperidin-1-yl)methanone], the IC50 was under 100 nM. Take `Cn1c(Cc2c(Cl)ccc(C(=O)N3CCC(C(=O)O)CC3)c2Cl)cc2ccc(C(F)(F)F)cc21` [M, 1-(2,4-dichloro-3-((1-methyl-6-(trifluoromethyl)-1H-indol-2-yl)methyl)benzoyl)piperidine-4-carboxylic acid]: the IC50 lay in the range of 100 to 500 nM.

As to `Cn1c(Cc2c(Cl)ccc(C(=O)N3CCN(C4CC(C(=O)O)C4)CC3)c2Cl)cc2ccc(C(F)(F)F)cc21` (stereo not shown) [O, 3-(4-(2,4-dichloro-3-((1-methyl-6-(trifluoromethyl)-1H-indol-2-yl)methyl)benzoyl)piperazin-1-yl)cyclobutanecarboxylic acid], the IC50 is 100 to 500 nM.
